Experimental findings from ChEMBL document CHEMBL1152167, “Synthesis and cytotoxic activities of 1-benzylidine substituted beta-carboline derivatives” (Bioorg Med Chem Lett, 2008) are described below.

Common to all, as to format: functional, cell-based
The test system of assay [1] is HT-29. Description: Cytotoxicity against human HT-29 cells by MTT assay.
The test system of assay [2] is A549. Kind of assay: Cytotoxicity against human A549 cells by MTT assay. A general note: Tetrazolium dyes change colour on reduction, which living cells bring about.
The subject of assay [3] is Bel-7402. Description: Cytotoxicity against human Bel7402 cells by MTT assay.
Assay [4] can be described thus: Cytotoxicity against human 786-O cells by MTT assay. The settings on record: 786-0.
In assay [5] the test system is BGC-823. Description: Cytotoxicity against human BGC823 cells by MTT assay.
The test system of assay [6] is 769-P. Description: Cytotoxicity against human 769-P cells by MTT assay.
Assay [7] concerns HeLa. Description: Cytotoxicity against human HeLa cells by MTT assay.
Assay [8] has as its system A-375. Kind of assay: Cytotoxicity against human A375 cells by MTT assay.
In assay [9] the test system is HepG2. Kind of assay: Cytotoxicity against human HepG2 cells by MTT assay.
Assay [10] relates to KB. Kind of assay: Cytotoxicity against human KB cells by MTT assay.

Regarding `COc1ccc(/C=C/c2c3[nH]c4ccccc4c3cc[n+]2Cc2ccccc2)cc1`, the IC50 in assay [1] is 9.4 µM; in assay [2], 10.8 µM; in [3], 22.5 µM; in [4] it was 10 µM; in [5], 22.9 µM; in [6], 4.9 µM. Moreover, the IC50 was 32.1 µM in assay [7], 28.2 µM in assay [8], 9.6 µM in [9] and 17.9 µM in [10].
For the molecule `CCCCn1c2ccccc2c2ccnc(/C=C/c3ccc(OC)cc3)c21`, the IC50 in assay [1] is greater than 200 µM; in [2] it was 38.1 µM; in [3], 29.7 µM; in assay [4], 67.4 µM; in [5], 141 µM; in assay [6] it was 25.2 µM. Also, the IC50 in assay [7] was 88.8 µM; in [8], 59.5 µM; in [9], 66 µM; in [10], 30.1 µM.
Turning to `CC(=O)n1c2ccccc2c2cc[n+](Cc3ccccc3)c(/C=C/c3ccc([N+](=O)[O-])cc3)c21`, the IC50 was found to be 10.5 µM in assay [1]; 7.6 µM in [2]; 17.9 µM in [3]; 28.6 µM in assay [4]; 14.8 µM in [5]; 19.8 µM in assay [6]. In addition, the IC50 turned out to be 14.4 µM in assay [7], 25.3 µM in [8], 5.2 µM in assay [9] and 15.4 µM in assay [10].
Turning to `CCCCOc1ccc2c3cc[n+](Cc4ccccc4)c(/C=C/c4ccc([N+](=O)[O-])cc4)c3n(CCCc3ccccc3)c2c1`, the IC50 in assay [1] is 2.5 µM; in assay [2] it was 2.8 µM; in [3] it was 1.5 µM; in [4] it was 2.7 µM; in assay [5], 4.1 µM; in assay [6], 3.1 µM. In addition, the IC50 in assay [7] was found to be 2.9 µM; in assay [8] it was 4.5 µM; in assay [9] it was 1.3 µM; in [10], 2.4 µM.
Regarding `COc1ccc(/C=C/c2nccc3c4ccccc4n(CCCc4ccccc4)c23)cc1`, the IC50 in assay [1] is greater than 200 µM; in assay [2] it was 127 µM; in assay [3], greater than 200 µM; in assay [4], 92.3 µM; in assay [5], greater than 200 µM; in assay [6], 123 µM. The IC50 in assay [7] was greater than 200 µM; in assay [8], greater than 200 µM; in [9], 186 µM; in [10], 58.9 µM.
In the case of `CCCCn1c2ccccc2c2ccnc(C)c21`, the IC50 worked out at 145 µM in assay [3], 264 µM in [5], 102 µM in assay [7] and 145 µM in [9].
`CCCCOc1ccc2c3ccnc(/C=C/c4ccc(OC)cc4)c3n(CCCc3ccccc3)c2c1`: the IC50 is 54.3 µM in assay [1]; 78.6 µM in assay [2]; greater than 200 µM in assay [3]; 89.1 µM in assay [4]; greater than 200 µM in assay [5]; 62.9 µM in assay [6]. Further, the IC50 was determined as 92.3 µM in [7], 64.3 µM in [8], 92.9 µM in [9] and 150 µM in assay [10].
As to `Cc1nccc2c1[nH]c1ccccc12` [HARMAN], the IC50 in assay [3] is 151 µM; in [5], 215 µM; in assay [7] it was 186 µM; in [9], 115 µM.
With `CCCCOc1ccc2c3cc[n+](Cc4ccccc4)c(/C=C/c4ccc(OC)cc4)c3n(CCCc3ccccc3)c2c1`, the IC50 in assay [1] came to 3.2 µM; in [2] it was 3.4 µM; in [3], 1.6 µM; in assay [4] it was 4.6 µM; in [5] it was 7.1 µM; in assay [6], 8.2 µM. Further, the IC50 in assay [7] came to 6.8 µM; in assay [8], 7.3 µM; in [9], 8.9 µM; in assay [10], 2.7 µM.
As to `O=[N+]([O-])c1ccc(/C=C/c2nccc3c4ccccc4n(CCCc4ccccc4)c23)cc1`, the IC50 in [1], in assay [2], in assay [3], in assay [4], in assay [5] and in assay [6] was greater than 200 µM each time. The IC50 in [7], in assay [8], in [9] and in assay [10] was greater than 200 µM throughout.
For the molecule `C(=C\c1nccc2c1[nH]c1ccccc12)/c1ccccc1`, the IC50 in assay [1] was 62.9 µM; in assay [2] it was 36.7 µM; in assay [3], 190 µM; in [4], 37.5 µM; in assay [5], greater than 200 µM; in [6], 7.8 µM. In addition, the IC50 in assay [7] was 139 µM; in [8], 71.4 µM; in assay [9], 171 µM; in assay [10], greater than 200 µM.
As for `Cc1nccc2c3ccccc3n(CCCc3ccccc3)c12`, the IC50 in [3] is 449 µM; in [5], 987 µM; in [7], greater than 1000 µM; in [9], 449 µM.
For `CC(=O)n1c2ccccc2c2ccnc(/C=C/c3ccc([N+](=O)[O-])cc3)c21`, the IC50 in [1], in [2], in [3], in assay [4], in assay [5] and in assay [6] was greater than 200 µM each time. Also, the IC50 in assay [7] is greater than 200 µM; in assay [8], greater than 200 µM; in assay [9], 197 µM; in assay [10] it was greater than 200 µM.
Regarding `CCCCOc1ccc2c3ccnc(/C=C/c4ccc([N+](=O)[O-])cc4)c3n(CCCc3ccccc3)c2c1`, the IC50 in [1], in [2], in [3], in assay [4], in assay [5] and in assay [6] was greater than 200 µM each time. For the same molecule, the IC50 in assay [7], in assay [8], in [9] and in assay [10] was greater than 200 µM in each case.
`COc1ccc(/C=C/c2nccc3c2[nH]c2ccccc23)cc1`: the IC50 amounted to 21.3 µM in assay [1]; 47.1 µM in [2]; 118 µM in assay [3]; 12.9 µM in [4]; 167 µM in assay [5]; 25.6 µM in assay [6]. The IC50 worked out at 142 µM in [7], 42.2 µM in [8], 60.5 µM in assay [9] and 29.5 µM in assay [10].
As to `COc1cc(/C=C/c2nccc3c2[nH]c2ccccc23)cc(OC)c1OC`, the IC50 came to 27.8 µM in [1]; 12.8 µM in assay [2]; 34.6 µM in [3]; 14.4 µM in assay [4]; 66.2 µM in [5]; 5.7 µM in assay [6]. Further, the IC50 in assay [7] was 50.5 µM; in assay [8] it was 23.9 µM; in [9] it was 32.2 µM; in [10], 24.6 µM.
Turning to `COc1ccc(/C=C/c2c3c(cc[n+]2Cc2ccccc2)c2ccccc2n3CCCc2ccccc2)cc1`, the IC50 was determined as 4.3 µM in assay [1]; 3.9 µM in assay [2]; 2.9 µM in assay [3]; 3.2 µM in [4]; 0.46 µM in assay [5]; 4.6 µM in assay [6]. The IC50 in [7] is 4.5 µM; in assay [8] it was 0.68 µM; in assay [9], 2.1 µM; in assay [10], 0.93 µM.
Consider `CCCCn1c2ccccc2c2cc[n+](Cc3ccccc3)c(/C=C/c3ccc(OC)cc3)c21`, for which the IC50 is 7.8 µM in assay [1]; 9.1 µM in assay [2]; 7.7 µM in assay [3]; 11.2 µM in assay [4]; 21.8 µM in assay [5]; 5.1 µM in assay [6]. Besides, the IC50 in assay [7] came to 6.7 µM; in [8] it was 8.4 µM; in assay [9], 6.7 µM; in [10] it was 3.9 µM.

What is called IC50 is the midpoint of a concentration-inhibition curve.
